From US12545665B2, “Crystal form of 6-(cyclopropanecarboxamido)-4-((2-methoxy-3-(1-methyl-1H-1,2,4-triazol-3-yl)phenyl)amino)-n-(methyl-d3) pyridazine-3-carboxamide” (Bristol-Myers Squibb Company, priority 2017, dated 2026)

Assays:
Format in all cases: physicochemical
[1] = Chemical stability (% Assay) of micronized Form A stored at different temperature and humidity conditions
Description: Samples of micronized Form A of Compound (I) were stored at different conditions of temperature and humidity for 4 weeks. The physical stability, characterized by DSC, TGA, and PXRD, were measured at 2 and 4 weeks.

[2] = Physical stability on storage, characterized by DSC, TGA and PXRD; details: samples stored for 4 weeks at different conditions of temperature and humidity, TGA, PXRD
Description: X-ray powder diffraction (PXRD) data were obtained using a Bruker C2 GADDS with Vantec-500 detector. The radiation was Cu Kα (40 KV, 40 mA). The sample-detector distance was […]. Incident optics include Goebel mirror and 0.3 mm collimator. Powder samples were placed in sealed glass capillaries of 1 mm or less in diameter; the capillary was rotated during data collection. Data were collected for 2≤2θ≤35° with a sample exposure time of at least 1000 seconds. The resulting two-dimensional diffraction arcs were integrated to create a traditional 1-dimensional PXRD pattern with a step size of 0.05 degrees 2θ in the range of ˜2 to ˜30 degrees 2θ.
Differential scanning calorimetry (DSC) experiments were performed in a TA Instruments™ model Q2000. The sample (about 2-6 mg) was weighed in an aluminum pan and recorded accurately recorded to a hundredth of a milligram, and transferred to the DSC. […] Data were collected between room temperature and 300° C. at 10° C./min heating rate. The plot was made with the endothermic peaks pointing down.
Thermal gravimetric analysis (TGA) experiments were performed in a TA Instruments™ model Q5000. The sample (about 10-30 mg) was placed in a platinum pan previously tared. […] The furnace was purged with nitrogen gas at 100 mL/min. Data were collected between room temperature and 300° C. at 10° C./min heating rate.

[3] = Moisture-sorption isotherm (VTI)
Description: Form A of Compound (I) is non-hygroscopic with less than 0.1 weight % gain between 25 to 75% relative humidity at 25° C.
Moisture-sorption isotherms were collected in a TA Instrument VTI-SA+ Vapor Sorption Analyzer using approximately 10 mg of sample. The sample was dried at 60° C. until the loss rate of 0.0005 wt %/min was obtained for 10 minutes. The sample was tested at 25° C. and 3 or 4, 5, 15, 25, 35, 45, 50, 65, 75, 85, and 95% relative humidity (RH). Equilibration at each relative humidity was reached when the rate of 0.0003 wt %/min for 35 minutes was achieved or a maximum of 600 minutes.

[4] = at the tested temperature and humidity conditions

% Assay ([1]; High Intensity Light/UV, 2 weeks): 99.3% | % Assay ([1]; High Intensity Light/UV, 4 weeks): 99.2% | Impurity profiles [1, 4]: remain unchanged | Change in chemical stability ([1]; samples of Table 2, stored up to 4 weeks): no measure change in chemical stability | % Assay ([1]; stored at 5° C. (control), 2 weeks): 99.2% | % Assay ([1]; stored at 5° C. (control), 4 weeks): 99.2% | % Assay ([1]; stored at 25° C./60% relative humidity (closed), 2 weeks): 99.2% | % Assay ([1]; stored at 25° C./60% relative humidity (closed), 4 weeks): 99.2% | % Assay ([1]; stored at 40° C./75% relative humidity (open), 2 weeks): 99.2% | % Assay ([1]; stored at 40° C./75% relative humidity (open), 4 weeks): 99.2% | % Assay ([1]; stored at 50° C., 2 weeks): 99.2% | % Assay ([1]; stored at 50° C., 4 weeks): 99.2% | Weight gain ([3]; between 25 to 75% relative humidity at 25° C.): less than 0.1 weight % | Hygroscopicity ([3]; moisture sorption isotherm at 25° C.): non-hygroscopic
Compound: [2H]C([2H])([2H])NC(=O)c1nnc(NC(=O)C2CC2)cc1Nc1cccc(-c2ncn(C)n2)c1OC [Form A of Compound (I), 6-(cyclopropanecarboxamido)-4-((2-methoxy-3-(1-methyl-1H-1,2,4-triazol-3-yl)phenyl)amino)-N-(methyl-d3)pyridazine-3-carboxamide]
Physical or chemical degradation [1, 4]: no significant physical or chemical degradation | Change in physical form [2]: No change in the physical form was detected
